From PMC8073907, “Peptide targeting of lysophosphatidylinositol-sensing GPR55 for osteoclastogenesis tuning” (Cell Communication and Signaling : CCS, 2021)

Experiments:
Type in all cases: cell-based, murine
[1] = system: osteoclasts derived from RAW264.7 cells; assay: Osteoclast functional assay (bone resorption on bovine cortical bone slices); details: 15 ng/mL RANKL, 7 days
Description: RAW264.7 cells were plated in differentiation medium at a density of 1250 cells/100 µL on 0.2-mm-thick bovine cortical bone slices (BoneSlices.com, Jelling, Denmark) in 96-well plates. Six hours later, 100 µL differentiation medium with RANKL (15 ng/mL, final concentration) was added, in the presence of a carrier or in combination with the GPR55 modulators. The media with the different compounds were replaced every 48 h, for a total of 7 days. At the end of this period, the cells were detached with a 10% bleach solution, and the resorption excavations were visualised by using Toluidine Blue staining (Sigma-Aldrich). Images of the resorption areas were obtained under the microscope (SW380T; Swift Optical Instruments, Inc., TX, USA) using the 10 × objective, and acquired with a digital camera (Swiftcam SC1003; Swift Optical Instruments, Inc.). The total eroded surface underwent blinded quantification using ImageJ (NIH), and was subdivided into pit and trench surfaces. Pits were characterised as round excavations with well-defined edges where the ratio between length and width was < 2.0. Trenches were defined as elongated excavations with well-defined edges whose length was at least twice the wide, and with clear signs of continued resorption. The prevalence of trenches was calculated as a proportion (%) of the trench surface relative to the total eroded surface.

RAW264.7 cells = assay: Filamentous actin (phalloidin) FACS analysis of RAW264.7 cells; details: 10 µM soybean LPI
Description: (§1) For transient interference of Gpr55, RAW264.7 cells were plated at 6 × 10^5 cells/well in six-well plates in growth medium without antibiotics. Twenty-four hours later, the cells were transfected with 250 pmol/well non-targeting small-interfering (si)RNAs (si-NT; siGENOME siRNA Pool #2; D-001206-14; Dharmacon, Chicago, IL, USA) or Gpr55-specific siRNAs (si-GPR55; siGENOME mouse GPR55 SMART pool; M-043590-01; Dharmacon) using Lipofectamine LTX and Plus Reagent, according to the manufacturer instructions. Twenty-four hours later, the cells were plated for the different assays or for RNA extraction. The efficiency of interference was monitored by real-time PCR after 72 h of interference, using the primers listed in the Additional file 1: Table S1. β2-microglobulin was followed as a housekeeping gene.
Twenty-four hours after plating the RAW264.7 cells at a density of 1.2 × 10^6 cells/well in six-well plates, or 2.5 × 10^5 cells/well in 24-well plates on coverslips, the cells were serum deprived for 2 h and then stimulated while adhered, with LPI in the assay buffer (0.1% faf-BSA, 20 mM HEPES in HBSS^++). Stimulation was blocked by two washes with HBSS^++, and cells on coverslips were processed for immunofluorescence (see below), while the cells in the six-well plates were scraped into cytoskeleton buffer (10 mM 4-morpholineethanesulfonic acid, 150 mM NaCl, 5 mM EGTA, 5 mM MgCl2, 5 mM glucose), for FACS analysis. For the latter, an equal volume of fixation solution (1% Triton X-100, 0.5% glutaraldehyde, in cytoskeleton buffer) was added to the cell suspension and left for 2 min at room temperature. […] Finally, the fixed cells were stained with 33 nM Alexa546-labelled phalloidin for 1 h at room temperature, washed three times (10 min each) with cytoskeleton buffer, suspended in PBS with 3% BSA, and analysed by FACS (FACSCalibur or FACSAria III; Becton Dickinson, Franklin Lakes, NJ).

[2] = system: endogenous GPR55 in RAW264.7 cells; assay: Intracellular Ca2+ assay in siRNA-interfered RAW264.7 cells; details: si-NT cells, 72 h of interference; 10 µM 16:0 LPI, within the first minute
Description: as §1
After 48 h of siRNA treatments, the RAW264.7 cells were detached with 600 μM EDTA in PBS, and plated at a density of 8 × 10^4 cells/well in 96-well plates. […] All the subsequent incubation steps were performed at 37 °C within the Fluoroskan Ascent FL (Thermo Fisher Scientific, Waltham, MA USA) and the fluorescence recorded with an Ex 485/ Em 520 every 3 s. The baseline fluorescence was monitored for 5 min, then 50 μL assay buffer (0.01% faf-BSA, 20 mM HEPES in HBSS^++) was added without or with 10 μM 16:0 LPI, and fluorescence was recorded for a further 5 min. […]

lysophosphatidylinositol [LPI]
effect on relative trench contribution ([1]; 0.5 µM ML-191 or 1 µM 18:0 LPI): did not affect the relative contributions of the trenches | increase of total resorbing activity induced by RANKL ([1]; 1 µM 18:0 LPI, versus RANKL + 0.004% faf-BSA): 54% | mean phalloidin fluorescence on LPI addition, si-GPR55 (RAW264.7 cells; si-GPR55 cells): did not increase further on LPI addition | mean phalloidin fluorescence, si-NT (RAW264.7 cells; si-NT cells): significant increase in the mean phalloidin fluorescence | maximal increase in phalloidin mean fluorescence (RAW264.7 cells; wild-type RAW264.7, 15 min, sub-populations #1 and #2, at least five independent experiments): 20% | mean increase of intracellular Ca2+ over basal levels [2]: ~ 40 nM
